Laboratory results reported in publication PMC6566410, “Novel Diamide-Based Benzenesulfonamides as Selective Carbonic Anhydrase IX Inhibitors Endowed with Antitumor Activity: Synthesis, Biological Evaluation and In Silico Insights” (International Journal of Molecular Sciences, 2019).

What was measured:
Experiment in all cases: NCI one-dose SRB assay
Assay type in all cases: cell-based
786-0 = settings: Homo sapiens, 786-0 (Renal Cancer), 1.00E-5 Molar, read-out: Growth Percent
Protocol: (§1) First, all diamide-based benzenesulfonamides herein reported 5a–h were screened for their antitumor activity at one dose (10^−5 M) assay against a panel of sixty cancer cell lines through the National Cancer Institute (NCI) Developmental Therapeutic Program (www.dtp.nci.nih.gov), according to US-NCI protocol. The cell growth and cell viability were evaluated using the sulforhodamine B (SRB) colorimetric assay.
(§2) This assay was carried out according to the protocol of the Drug Evaluation Branch, NCI, Bethesda. The cell growth and cell viability were evaluated using the sulforhodamine B (SRB) colorimetric assay, as reported earlier.

A498 = settings: Homo sapiens, A498 (Renal Cancer), 1.00E-5 Molar, read-out: Growth Percent
Protocol: as §1, §2

A549/ATCC = settings: Homo sapiens, A549/ATCC (Non-Small Cell Lung Cancer), 1.00E-5 Molar, read-out: Growth Percent
Protocol: as §1, §2

CAKI-1 = settings: Homo sapiens, CAKI-1 (Renal Cancer), 1.00E-5 Molar, read-out: Growth Percent
Protocol: as §1, §2

DU-145 = settings: Homo sapiens, DU-145 (Prostate Cancer), 1.00E-5 Molar, read-out: Growth Percent
Protocol: as §1, §2

EKVX = settings: Homo sapiens, EKVX (Non-Small Cell Lung Cancer), 1.00E-5 Molar, read-out: Growth Percent
Protocol: as §1, §2

HCC-2998 = settings: Homo sapiens, HCC-2998 (Colon Cancer), 1.00E-5 Molar, read-out: Growth Percent
Protocol: as §1, §2

HCT-116 = settings: Homo sapiens, HCT-116 (Colon Cancer), 1.00E-5 Molar, read-out: Growth Percent
Protocol: as §1, §2

HCT-15 = settings: Homo sapiens, HCT-15 (Colon Cancer), 1.00E-5 Molar, read-out: Growth Percent
Protocol: as §1, §2

HL-60(TB) = settings: Homo sapiens, HL-60(TB) (Leukemia), 1.00E-5 Molar, read-out: Growth Percent
Protocol: as §1, §2

HOP-62 = settings: Homo sapiens, HOP-62 (Non-Small Cell Lung Cancer), 1.00E-5 Molar, read-out: Growth Percent
Protocol: as §1, §2

HOP-92 = settings: Homo sapiens, HOP-92 (Non-Small Cell Lung Cancer), 1.00E-5 Molar, read-out: Growth Percent
Protocol: as §1, §2

HT29 = settings: Homo sapiens, HT-29, HT29 (Colon Cancer), 1.00E-5 Molar, read-out: Growth Percent
Protocol: as §1, §2

K-562 = settings: Homo sapiens, K562, K-562 (Leukemia), 1.00E-5 Molar, read-out: Growth Percent
Protocol: as §1, §2

LOX IMVI = settings: Homo sapiens, LOX IMVI (Melanoma), 1.00E-5 Molar, read-out: Growth Percent
Protocol: as §1, §2

M14 = settings: Homo sapiens, M14 (Melanoma), 1.00E-5 Molar, read-out: Growth Percent
Protocol: as §1, §2

MDA-MB-435 = settings: Homo sapiens, MDA-MB-435 (Melanoma), 1.00E-5 Molar, read-out: Growth Percent
Protocol: as §1, §2

NCI-H226 = settings: Homo sapiens, NCI-H226 (Non-Small Cell Lung Cancer), 1.00E-5 Molar, read-out: Growth Percent
Protocol: as §1, §2

NCI-H23 = settings: Homo sapiens, NCI-H23 (Non-Small Cell Lung Cancer), 1.00E-5 Molar, read-out: Growth Percent
Protocol: as §1, §2

NCI-H322M = settings: Homo sapiens, NCI-H322M (Non-Small Cell Lung Cancer), 1.00E-5 Molar, read-out: Growth Percent
Protocol: as §1, §2

NCI-H460 = settings: Homo sapiens, NCI-H460 (Non-Small Cell Lung Cancer), 1.00E-5 Molar, read-out: Growth Percent
Protocol: as §1, §2

NCI-H522 = settings: Homo sapiens, NCI-H522 (Non-Small Cell Lung Cancer), 1.00E-5 Molar, read-out: Growth Percent
Protocol: as §1, §2

OVCAR-5 = settings: Homo sapiens, OVCAR-5 (Ovarian Cancer), 1.00E-5 Molar, read-out: Growth Percent
Protocol: as §1, §2

PC-3 = settings: Homo sapiens, PC-3 (Prostate Cancer), 1.00E-5 Molar, read-out: Growth Percent
Protocol: as §1, §2

RXF 393 = settings: Homo sapiens, RXF 393 (Renal Cancer), 1.00E-5 Molar, read-out: Growth Percent
Protocol: as §1, §2

SF-539 = settings: Homo sapiens, SF-539 (CNS Cancer), 1.00E-5 Molar, read-out: Growth Percent
Protocol: as §1, §2

SK-MEL-5 = settings: Homo sapiens, SK-MEL-5 (Melanoma), 1.00E-5 Molar, read-out: Growth Percent
Protocol: as §1, §2

TK-10 = settings: Homo sapiens, TK-10 (Renal Cancer), 1.00E-5 Molar, read-out: Growth Percent
Protocol: as §1, §2

U251 = settings: Homo sapiens, U-251, U251 (CNS Cancer), 1.00E-5 Molar, read-out: Growth Percent
Protocol: as §1, §2

UACC-257 = settings: Homo sapiens, UACC-257 (Melanoma), 1.00E-5 Molar, read-out: Growth Percent
Protocol: as §1, §2

UACC-62 = settings: Homo sapiens, UACC-62 (Melanoma), 1.00E-5 Molar, read-out: Growth Percent
Protocol: as §1, §2

SMILES	activity at 10 µM (786-0)	activity at 10 µM (A498)	activity at 10 µM (A549/ATCC)	activity at 10 µM (CAKI-1)	activity at 10 µM (DU-145)	activity at 10 µM (EKVX)	activity at 10 µM (HCC-2998)	activity at 10 µM (HCT-116)	activity at 10 µM (HCT-15)	activity at 10 µM (HL-60(TB))	activity at 10 µM (HOP-62)	activity at 10 µM (HOP-92)	activity at 10 µM (HT29)	activity at 10 µM (K-562)	activity at 10 µM (LOX IMVI)	activity at 10 µM (M14)	activity at 10 µM (MDA-MB-435)	activity at 10 µM (NCI-H226)	activity at 10 µM (NCI-H23)	activity at 10 µM (NCI-H322M)	also measured
Cc1ccc(C=C(NC(=O)c2ccccc2)C(=O)Nc2ccc(S(N)(=O)=O)cc2)cc1 [Compound 5d, N-(3-Oxo-3-((4-sulfamoylphenyl)amino)-1-(p-tolyl)prop-1-en-2-yl)benzamide]	100%	103%	95.4%	93.9%	105%	108%	100%	99.3%	90.6%	88.5%	114%	109%	103%	94.6%	99%	110%	92.9%	105%	94.9%	108%	activity at 10 µM (NCI-H460): 108%; activity at 10 µM (NCI-H522): 89.9%; activity at 10 µM (OVCAR-5): 103%; activity at 10 µM (PC-3): 96.5%; activity at 10 µM (RXF 393): 116%; activity at 10 µM (SF-539): 102%; activity at 10 µM (SK-MEL-5): 97%; activity at 10 µM (TK-10): 104%; activity at 10 µM (U251): 99%; activity at 10 µM (UACC-257): 105%; activity at 10 µM (UACC-62): 99.4%
COc1ccc(C=C(NC(=O)c2ccccc2)C(=O)Nc2ccc(S(N)(=O)=O)cc2)c(OC)c1 [Compound 5f, N-(1-(2,4-Dimethoxyphenyl)-3-oxo-3-((4-sulfamoylphenyl)amino)prop-1-en-2-yl)benzamide]	103%	111%	94.9%	92.3%	111%	97.3%	110%	104%	99.1%	103%	117%	114%	106%	116%	99.8%	111%	97%	98.4%	101%	102%	activity at 10 µM (NCI-H460): 109%; activity at 10 µM (NCI-H522): 88.2%; activity at 10 µM (OVCAR-5): 106%; activity at 10 µM (PC-3): 96.3%; activity at 10 µM (RXF 393): 108%; activity at 10 µM (SF-539): 98.2%; activity at 10 µM (SK-MEL-5): 102%; activity at 10 µM (TK-10): 112%; activity at 10 µM (U251): 100%; activity at 10 µM (UACC-257): 99.6%; activity at 10 µM (UACC-62): 97.2%
NS(=O)(=O)c1ccc(NC(=O)C(=Cc2ccc(Cl)cc2)NC(=O)c2ccccc2)cc1 [Compound 5a, N-(1-(4-Chlorophenyl)-3-oxo-3-((4-sulfamoylphenyl)amino)prop-1-en-2-yl)benzamide]	95.9%	104%	101%	92.5%	107%	99.5%	103%	93.9%	106%	101%	91.9%	98.8%	106%	109%	97%	102%	98.7%	92.9%	103%	108%	activity at 10 µM (NCI-H460): 106%; activity at 10 µM (NCI-H522): 90.9%; activity at 10 µM (OVCAR-5): 105%; activity at 10 µM (PC-3): 105%; activity at 10 µM (RXF 393): 103%; activity at 10 µM (SF-539): 98.8%; activity at 10 µM (SK-MEL-5): 100%; activity at 10 µM (TK-10): 96.6%; activity at 10 µM (U251): 95.3%; activity at 10 µM (UACC-257): 103%; activity at 10 µM (UACC-62): 96.2%
Cc1ccc(C=C(NC(=O)c2ccccc2)C(=O)Nc2ccc(S(N)(=O)=O)cc2)o1 [Compound 5h, N-(1-(5-Methylfuran-2-yl)-3-oxo-3-((4-sulfamoylphenyl)amino)prop-1-en-2-yl)benzamide]	98.7%	99.8%	90.6%	84.4%	99.9%	98%	104%	89.1%	92.9%	94.6%	95.2%	70.1%	86.3%	96.1%	94.9%	114%	99.3%	102%	98.9%	106%	activity at 10 µM (NCI-H460): 101%; activity at 10 µM (NCI-H522): 85.7%; activity at 10 µM (OVCAR-5): 100%; activity at 10 µM (PC-3): 90.9%; activity at 10 µM (RXF 393): 95.5%; activity at 10 µM (SF-539): 90.2%; activity at 10 µM (SK-MEL-5): 82.3%; activity at 10 µM (TK-10): 112%; activity at 10 µM (U251): 88.9%; activity at 10 µM (UACC-257): 99.4%; activity at 10 µM (UACC-62): 95%
COc1ccc(C=C(NC(=O)c2ccccc2)C(=O)Nc2ccc(S(N)(=O)=O)cc2)cc1 [Compound 5e, N-(1-(4-Methoxyphenyl)-3-oxo-3-((4-sulfamoylphenyl)amino)prop-1-en-2-yl)benzamide]	105%	102%	103%	98.1%	113%	105%	106%	105%	104%	99.2%	104%	109%	100%	101%	99.1%	107%	97.5%	105%	99.6%	110%	activity at 10 µM (NCI-H460): 105%; activity at 10 µM (NCI-H522): 90.5%; activity at 10 µM (OVCAR-5): 108%; activity at 10 µM (PC-3): 98.9%; activity at 10 µM (RXF 393): 110%; activity at 10 µM (SF-539): 96.8%; activity at 10 µM (SK-MEL-5): 100%; activity at 10 µM (TK-10): 107%; activity at 10 µM (U251): 99.4%; activity at 10 µM (UACC-257): 102%; activity at 10 µM (UACC-62): 92.7%
